Data published in US20090163525A1, “SUBSTITUTED QUINAZOLINES WITH ANTI-CANCER ACTIVITY” (ASTRAZENECA AB, priority 2006, published 2009).

Target: Mutant B-Raf (V600E) enzyme (MT B-Raf) (Homo sapiens, UniProt P15056, V600E)
Assay: B-Raf in vitro AlphaScreen assay
Format: biochemical
Conditions: phosphorylation of biotinylated HIS-MEK-AVI, 24 μM ATP in mix
Method: B-Raf In-vitro AlphaScreen Assay
MT B-Raf was expressed in insect cells and affinity purified by Ni^+2 agarose followed by Q-Sepharose chromatography. Typical yield was 1.08 mg/ml at >90% purity.
The phosphorylation of the MT B-Raf substrate in the presence and absence of the compound of interest was determined. Briefly, 5 μl of enzyme/substrate/adenosine triphosphate (ATP) mix consisting of 0.12 nM MT B-Raf, 84 nM biotinylated HIS-MEK-AVI, and 24 μM ATP in 1.2× buffer was preincubated with 2 μl of compound for 20 minutes at 25° C. Reactions were initiated with 5 μl of Metal mix consisting of 24 mM MgCl2 in 1.2× buffer and incubated at 25° C. for 60 minutes and reactions were stopped by addition of 5 μl of Detection mix consisting of 20 mM HEPES, 102 mM ethylenediamine tetraacetic acid, 1.65 mg/ml BSA, 136 mM NaCl, 3.4 nM Phospho-MEK1/2 (Ser217/221) antibody (Catalog #9121, Cell Signaling Technology, Mass.), 40 μg/ml Streptavidin donor beads (Perkin Elmer, Mass., Catalog #6760002), and 40 μg/ml Protein A acceptor beads (Perkin Elmer, Mass., Catalog #6760137). Plates were incubated at 25° C. for 18 hours in the dark. Phosphorylated substrate was detected by an EnVision plate reader (Perkin Elmer, Mass.) 680 nm excitation, 520-620 nm emission. Data was graphed and IC50s calculated using Excel Fit (Microsoft).

Chain of Mutant B-Raf (V600E) enzyme (MT B-Raf) (P15056 whole entry V600E): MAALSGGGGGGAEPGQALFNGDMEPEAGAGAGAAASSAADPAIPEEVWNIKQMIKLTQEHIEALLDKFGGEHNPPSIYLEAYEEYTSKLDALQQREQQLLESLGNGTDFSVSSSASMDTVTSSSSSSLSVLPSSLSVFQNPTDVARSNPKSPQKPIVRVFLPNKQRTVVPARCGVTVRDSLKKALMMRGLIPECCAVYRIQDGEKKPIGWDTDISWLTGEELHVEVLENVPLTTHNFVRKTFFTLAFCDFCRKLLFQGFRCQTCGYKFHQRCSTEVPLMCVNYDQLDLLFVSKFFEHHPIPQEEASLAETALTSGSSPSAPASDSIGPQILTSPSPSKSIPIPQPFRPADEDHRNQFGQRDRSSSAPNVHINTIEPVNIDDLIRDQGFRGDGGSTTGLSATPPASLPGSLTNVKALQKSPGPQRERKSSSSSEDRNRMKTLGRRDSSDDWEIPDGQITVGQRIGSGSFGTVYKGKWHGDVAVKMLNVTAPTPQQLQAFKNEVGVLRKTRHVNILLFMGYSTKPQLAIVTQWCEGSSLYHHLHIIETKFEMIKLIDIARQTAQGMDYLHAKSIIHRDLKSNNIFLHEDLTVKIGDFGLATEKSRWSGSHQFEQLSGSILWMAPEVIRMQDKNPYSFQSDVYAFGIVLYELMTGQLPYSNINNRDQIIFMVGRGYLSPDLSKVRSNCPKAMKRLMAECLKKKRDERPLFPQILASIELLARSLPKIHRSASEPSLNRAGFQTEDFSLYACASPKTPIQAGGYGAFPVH

| IC50 [nM] | Structure (SMILES) |
| --- | --- |
| 363 | Cc1ccc(NC(=O)Nc2ccc(Cl)c(Cl)c2)cc1Nc1ccc2ncn(C)c(=O)c2c1 [Example 2, N-(3,4-Dichlorophenyl)-N′-{4-methyl-3-[(3-methyl-4-oxo-3,4-dihydroquinazolin-6-yl)amino]phenyl}urea] |
| 99 | Cc1ccc(NC(=O)Nc2cccc(C(C)(C)C#N)c2)cc1Nc1ccc2ncn(C)c(=O)c2c1 [Example 6, N-[3-(1-Cyano-1-methylethyl)phenyl]-N′-{4-methyl-3-[(3-methyl-4-oxo-3,4-dihydroquinazolin-6-yl)amino]phenyl}urea] |

| Structure (SMILES) | IC50 [nM] |
| --- | --- |
| Cc1ccc(NC(=O)Nc2cccc(C(F)(F)F)c2)cc1Nc1ccc2ncn(C)c(=O)c2c1 [Example 1, N-{4-Methyl-3-[(3-methyl-4-oxo-3,4-dihydroquinazolin-6-yl)amino]phenyl}-N-′[3-(trifluoromethyl)phenyl]urea] | 14.3 |
